According to patent publication US8592426B2, “Aryl-benzocycloalkyl amide derivatives” (Hoffmann—La Roche Inc., priority 2011, dated 2013):

What was measured:
[1] = biological target: T1, Bradykinin-1 receptor (Homo sapiens (Human), UniProt P46663); assay: Receptor binding assay (B1R Binding Assay), [3H]-Kallidin (Des Arg10, Leu9) displacement; settings: membranes from CHO-K1 cells overexpressing Bradykinin-1 receptor; 6 nM radioligand
Experimental: Binding assays were done with membranes from CHO-K1 cells overexpressing Bradykinin-1 receptor.
To determine non-specific binding 10 μM Lys-(Des-Arg^9)-Bradykinin (Bachem) was added. Membranes were harvested through GF/B (glass fiber filter; PerkinElmer) plates, equilibrated with 0.5% polyethylenimine, air dried at 50° C. for 2 h. Radioactivity was determined by counting in a topcounter (NXT Packard).

[2] = biological target: T1, Bradykinin-1 receptor; assay: Calcium mobilization assay (FLIPR, Fluo-4) in GeneBLAzer Bradykinin (B1)-NFAT-bla CHO-K1 cells; type: cell-based; settings: antagonist activity; CHO-K1 cells stably overexpressing the human bradykinin 1 receptor; read-out: Ca mobilization Assay IC50
Experimental: Calcium Mobilization Assay
GeneBLAzer® Bradykinin (B1)-NFAT-bla CHO-K1 cells (from Invitrogen) stably overexpressing the human bradykinin 1 receptor were cultured in DMEM (high glucose) supplemented with 10% dialysed FBS, 1% NEAA (non essential amino acids) 1% penicillin/streptomycin, 1% G418 and 0.1 mg/ml zeocin.
For the assay cells were grown overnight in 384-well black clear flat bottom polystyrene plates (Costar) at 37° C. at 5% CO2. After washing with DMEM, 20 mM Hepes, 2.5 mM probenecid, 0.1% BSA (DMEM assay buffer) cells were loaded with 4 μM Fluo-4 in the same DMEM assay buffer for 2 hours at 30° C. Excess dye was removed and cells were washed with DMEM assay buffer. 384-well compound plates were prepared with DMEM assay buffer/0.5% DMSO with or without various concentrations of test compounds. Usually compounds were tested for agonist and antagonist activity.
Test compounds were added to the assay plate and agonist activity was monitored as fluorescence for 80 seconds with a FLIPR (488 nm excitation; 510-570 nm emission; Molecular Devices). After 20-30 min. of incubation at 30° C., 20 nM […] (R&D; Roche) was added and fluorescence was monitored again for 80 seconds. Increases in intracellular calcium are reported as maximum fluorescence after agonist exposure minus basal fluorescence before exposure.

T1 sequence (P46663 whole entry): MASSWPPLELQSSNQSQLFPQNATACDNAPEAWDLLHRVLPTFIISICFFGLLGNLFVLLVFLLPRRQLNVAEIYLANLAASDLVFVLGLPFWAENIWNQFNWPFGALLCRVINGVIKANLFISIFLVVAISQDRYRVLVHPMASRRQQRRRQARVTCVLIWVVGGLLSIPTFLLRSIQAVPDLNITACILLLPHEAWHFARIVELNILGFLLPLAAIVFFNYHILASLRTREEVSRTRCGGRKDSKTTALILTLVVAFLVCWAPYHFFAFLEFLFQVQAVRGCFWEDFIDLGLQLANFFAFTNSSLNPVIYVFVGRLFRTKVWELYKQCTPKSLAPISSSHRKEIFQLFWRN

| Structure (SMILES) | Ki [1] [nM] | IC50 [2] [nM] |
| --- | --- | --- |
| Cc1nc(-c2c(F)cc(Cl)cc2-c2ccc3c(c2)CC[C@@H]3NC(=O)C2(NC(=O)c3ccnnc3)CC2)no1 [Example 27, Pyridazine-4-carboxylic acid(1-{(S)-5-[5-chloro-3-fluoro-2-(5-methyl-[1,2,4]oxadiazol-3-yl)-phenyl]-indan-1-ylcarbamoyl}-cyclopropyl)-amide] | 3.6 | 0.4 |
| Cn1nnc(-c2c(F)cc(Cl)cc2-c2ccc3c(c2)SCC3NC(=O)C2(NC(=O)c3cncnc3)CC2)n1 (racemic) [Example 63, Pyrimidine-5-carboxylic acid(1-{(rac)-6-[5-chloro-3-fluoro-2-(2-methyl-2H-tetrazol-5-yl)-phenyl]-2,3-dihydro-benzo[b]thiophen-3-ylcarbamoyl}-cyclopropyl)-amide] | 4.8 | 0.2 |
| COc1cc(C(=O)NC2(C(=O)NC3CCc4cc(-c5cc(Cl)cc(F)c5-c5noc(C)n5)cnc43)CC2)on1 (racemic) [Example 38, 3-Methoxy-isoxazole-5-carboxylic acid(1-{(rac)-3-[5-chloro-3-fluoro-2-(5-methyl-[1,2,4]oxadiazol-3-yl)-phenyl]-6,7-dihydro-5H-[1]pyrindin-7-ylcarbamoyl}-cyclopropyl)-amide] | 3 | 0.2 |
| COc1ncc(C(=O)NC2(C(=O)NC3CCc4cc(-c5cc(Cl)cc(F)c5-c5noc(C)n5)cnc43)CC2)cn1 (racemic) [Example 42, 2-Methoxy-pyrimidine-5-carboxylic acid(1-{(rac)-3-[5-chloro-3-fluoro-2-(5-methyl-[1,2,4]oxadiazol-3-yl)-phenyl]-6,7-dihydro-5H-[1]pyrindin-7-ylcarbamoyl}-cyclopropyl)-amide] | 4 | 0.2 |
| COC(=O)c1c(Cl)cccc1-c1ccc2c(c1)CC[C@@H]2NC(=O)C1(NC(=O)C(F)(F)F)COC1 [Example 6, 2-Chloro-6-((S)-1-{[3-(2,2,2-trifluoro-acetylamino)-oxetane-3-carbonyl]-amino}-indan-5-yl)-benzoic acid methyl ester] | 381 | 455 |
| Cc1nc(-c2c(F)cc(Cl)cc2-c2cnc3c(c2)CCC3NC(=O)C2(NC(=O)c3ccno3)CC2)no1 (racemic) [Example 43, Isoxazole-5-carboxylic acid(1-{(rac)-3-[5-chloro-3-fluoro-2-(5-methyl-[1,2,4]oxadiazol-3-yl)-phenyl]-6,7-dihydro-5H-[1]pyrindin-7-ylcarbamoyl}-cyclopropyl)-amide] | 6.3 | 0.3 |
| Cn1nnc(-c2c(F)cc(Cl)cc2-c2ccc3c(c2)CC[C@@H]3NC(=O)C2(NC(=O)C(F)(F)F)COC2)n1 [Example 8, 3-(2,2,2-Trifluoro-acetylamino)-oxetane-3-carboxylic acid{(S)-5-[5-chloro-3-fluoro-2-(2-methyl-2H-tetrazol-5-yl)-phenyl]-indan-1-yl}-amide] | 30.3 | 24.4 |
| Cn1nnc(-c2c(F)cc(Cl)cc2-c2ccc3c(c2)OCCC3NC(=O)C2(NC(=O)C(F)(F)F)CC2)n1 (racemic) [Example 15, 1-(2,2,2-Trifluoro-acetylamino)-cyclopropanecarboxylic acid{(rac)-7-[5-chloro-3-fluoro-2-(2-methyl-2H-tetrazol-5-yl)-phenyl]-chroman-4-yl}-amide] | 170 | 24.6 |
| Cc1nc(-c2c(F)cc(Cl)cc2-c2cc(F)c3c(c2)CCC3NC(=O)C2(NC(=O)c3ccnnc3)CC2)no1 (racemic) [Example 34, Pyridazine-4-carboxylic acid(1-{(rac)-5-[5-chloro-3-fluoro-2-(5-methyl-[1,2,4]oxadiazol-3-yl)-phenyl]-7-fluoro-indan-1-ylcarbamoyl}-cyclopropyl)-amide] | 15.1 | 0.6 |
